Patent US5372816A, “Trehalostatin and process for the preparation thereof” (Suntory Limited, priority 1989, dated 1994)

Columns and labels:
Assay type in all cases: biochemical
[1] = tested on: Trehalase (Aldrichina grahami); experiment: Enzyme inhibition spectrum: trehalase (Aldrichina grahami)
Procedure: 10 μl of an inhibitor solution and 10 μl of a trehalase solution (trehalase collected from Aldrichina grahami) were mixed. After 5 minutes incubation at 37° C., 80 μl of a 5 mM trehalose and 50 mM phosphate buffer solution (pH 6.5) was added, followed by an additional one-hour incubation at 37° C. Thereafter, 10 μl of a 50% trichloroacetic acid solution was added to terminate the reaction. Glucose formed in the reaction solution was determined by a new blood sugar test manufactured by Boehringer-Mannheim Ltd. The amount of the enzyme was such that absorbance of the wavelength ([…]) used in the glucose determination when conducted according to the above method without adding the inhibitor would become 1.0. The Trehalostatin concentration which can achieve 50% inhibition of enzyme (trehalase) activity in the above determination method was expressed as 1 unit/ml.
Each enzyme (200 μl) is incubated with Trehalostatin (0.01-50 μg) in 0.05 M acetate (pH 5-6) or phosphate (pH 6-7) buffer solution at 37° C. for 5 minutes. Then 20 μl of the resulting solution is collected and added with a substrate to a final concentration shown in the Table, making the total volume of the solution 100 μl. […]
(§1) (A) The glucose produced was determined by the new blood sugar test devised by Boehringer-Mannheim Ltd.

[2] = tested on: Trehalase (Chaetomium aureum); experiment: Enzyme inhibition spectrum: trehalase (Chaetomium aureum); details: enzyme 15 μg; pH 5.5, 5 mM trehalase; measuring method A
Procedure: (§2) Each enzyme (200 μl) is incubated with Trehalostatin (0.01-50 μg) in 0.05 M acetate (pH 5-6) or phosphate (pH 6-7) buffer solution at 37° C. for 5 minutes. Then 20 μl of the resulting solution is collected and added with a substrate to a final concentration shown in the Table, making the total volume of the solution 100 μl. The mixture is incubated at 37° C. for 10 minutes and then incubated in a boiling water bath for 3 minutes to terminate the reaction.
(§3) Determination of activity was made by measuring the increase of the product in the reaction system according to the following methods A-C.
(§4) The quantity of Trehalostatin which can effect 50% inhibition of enzyme activity under the above-described conditions was indicated as ID50.
as §1

[3] = molecular target: T1, Trehalase (bovine colonic mucosa) (Bos taurus, UniProt E1B8N4); experiment: Enzyme inhibition spectrum: trehalase (bovine colonic mucosa); details: enzyme 2500 μg; pH 5.5, 5 mM trehalase; measuring method A
T1 construct: mucosal acetone powder Sigma (M2766); purchased Sigma M2766; host or cells: bovine colonic mucosa, acetone powder
T1 sequence (E1B8N4 24-579): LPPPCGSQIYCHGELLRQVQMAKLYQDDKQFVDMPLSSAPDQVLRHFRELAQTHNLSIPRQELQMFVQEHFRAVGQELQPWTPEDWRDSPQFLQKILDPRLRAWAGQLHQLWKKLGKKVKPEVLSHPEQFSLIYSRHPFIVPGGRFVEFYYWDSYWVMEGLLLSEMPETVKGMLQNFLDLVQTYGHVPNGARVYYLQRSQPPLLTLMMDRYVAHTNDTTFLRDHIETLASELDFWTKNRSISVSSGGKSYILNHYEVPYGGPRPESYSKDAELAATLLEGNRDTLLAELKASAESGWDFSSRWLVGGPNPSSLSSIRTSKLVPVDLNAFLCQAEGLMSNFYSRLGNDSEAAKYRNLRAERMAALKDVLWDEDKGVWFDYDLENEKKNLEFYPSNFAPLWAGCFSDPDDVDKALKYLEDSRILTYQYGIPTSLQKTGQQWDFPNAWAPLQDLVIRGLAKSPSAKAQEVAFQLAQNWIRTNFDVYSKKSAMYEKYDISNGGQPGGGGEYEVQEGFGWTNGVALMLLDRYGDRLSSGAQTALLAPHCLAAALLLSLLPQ
Procedure: as §2, §3, §4, §1

Trehalase (swine kidney) = molecular target: T2, Trehalase (swine kidney) (Sus scrofa, UniProt I3LIR5); experiment: Enzyme inhibition spectrum: trehalase (swine kidney); details: enzyme 1.1 unit (nmol glucose/min); pH 6.5, 5 mM trehalase; measuring method A
T2 construct: purchased Sigma M8778; host or cells: swine kidney
T2 sequence (I3LIR5 24-583): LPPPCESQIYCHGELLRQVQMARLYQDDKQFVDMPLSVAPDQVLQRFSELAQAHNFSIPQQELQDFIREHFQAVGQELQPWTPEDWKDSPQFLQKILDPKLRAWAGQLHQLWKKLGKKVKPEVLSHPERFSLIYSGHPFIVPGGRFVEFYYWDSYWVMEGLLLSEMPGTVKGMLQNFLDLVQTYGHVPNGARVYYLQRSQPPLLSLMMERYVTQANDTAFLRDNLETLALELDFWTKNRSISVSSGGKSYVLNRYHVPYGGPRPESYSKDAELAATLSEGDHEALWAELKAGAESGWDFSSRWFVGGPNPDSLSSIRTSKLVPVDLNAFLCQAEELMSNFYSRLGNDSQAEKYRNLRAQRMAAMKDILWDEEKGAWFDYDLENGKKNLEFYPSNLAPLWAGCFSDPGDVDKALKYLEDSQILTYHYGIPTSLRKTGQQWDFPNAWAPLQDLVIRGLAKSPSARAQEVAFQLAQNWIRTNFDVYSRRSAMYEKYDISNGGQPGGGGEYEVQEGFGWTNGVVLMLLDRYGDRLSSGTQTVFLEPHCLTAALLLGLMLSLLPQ
Procedure: as §2, §3, §4, §1

α-glycosidase (yeast) = molecular target: T3, α-glycosidase (yeast) (Saccharomyces cerevisiae, UniProt P53341); experiment: Enzyme inhibition spectrum: α-glycosidase (yeast); details: enzyme 1 μg; pH 7.1, 5 mM P-nitrophenyl glycoside; measuring method A
T3 construct: purchased TOYOBO Co., Ltd; host or cells: yeast
Procedure: as §2, §3, §4, §1

[4] = molecular target: T4, β-glycosidase (Asp. aculeatus) (Aspergillus aculeatus, UniProt P48825); experiment: Enzyme inhibition spectrum: β-glycosidase (Asp. aculeatus); details: enzyme 15 μg; pH 5.0, 0.5% salicin; measuring method A
T4 construct: a crude enzyme (prepared by University of Osaka Prefecture); host or cells: Aspergillus aculeatus
Procedure: as §2, §3, §4, §1

Gluco amylase (almond) = experiment: Enzyme inhibition spectrum: Gluco amylase (almond), salicin substrate; set-up: key: ++: ID50 ≤ 1.0 μg; +: ID50 ≥ 1.0 μg; -: no inhibition; details: enzyme 10 μg; pH 5.0, 0.5% salicin; measuring method A
Procedure: as §2, §3, §4, §1

[5] = tested on: Gluco amylase (Rhizopus niveus); experiment: Enzyme inhibition spectrum: Gluco amylase (Rhizopus niveus); set-up: key: ++: ID50 ≤ 1.0 μg; +: ID50 ≥ 1.0 μg; -: no inhibition; details: enzyme 2 μg; pH 5.5, 0.5% starch; measuring method A
Procedure: as §2, §3, §4, §1

exo-β-1,3-glucanase = experiment: Enzyme inhibition spectrum: exo-β-1,3-glucanase; set-up: key: ++: ID50 ≤ 1.0 μg; +: ID50 ≥ 1.0 μg; -: no inhibition; details: enzyme 15 μg; pH 6.0, 0.1% laminarin; measuring method B
Procedure: as §2, §3, §4
(B) An amount of glucose produced was determined according to the method shown in D. R. Barras and B. A. Stone, Biochim. Biophys. Acta, 191, 329 (1969).

T3 sequence (P53341 whole entry): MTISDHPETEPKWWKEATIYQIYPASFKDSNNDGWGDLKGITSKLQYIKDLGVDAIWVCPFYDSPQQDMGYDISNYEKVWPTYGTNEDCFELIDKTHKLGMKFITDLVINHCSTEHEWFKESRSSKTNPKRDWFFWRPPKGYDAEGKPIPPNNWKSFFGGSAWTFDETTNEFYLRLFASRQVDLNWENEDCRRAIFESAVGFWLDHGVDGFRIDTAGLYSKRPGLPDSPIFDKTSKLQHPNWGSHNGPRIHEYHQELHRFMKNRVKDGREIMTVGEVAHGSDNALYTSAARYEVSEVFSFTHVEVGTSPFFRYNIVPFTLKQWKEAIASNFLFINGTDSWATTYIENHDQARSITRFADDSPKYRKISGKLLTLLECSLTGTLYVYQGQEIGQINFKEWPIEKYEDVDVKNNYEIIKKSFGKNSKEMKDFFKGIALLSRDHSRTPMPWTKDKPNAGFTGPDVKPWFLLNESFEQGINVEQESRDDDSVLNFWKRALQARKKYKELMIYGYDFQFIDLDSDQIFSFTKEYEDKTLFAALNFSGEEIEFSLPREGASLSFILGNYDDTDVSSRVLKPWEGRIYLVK
T4 sequence (P48825 20-860): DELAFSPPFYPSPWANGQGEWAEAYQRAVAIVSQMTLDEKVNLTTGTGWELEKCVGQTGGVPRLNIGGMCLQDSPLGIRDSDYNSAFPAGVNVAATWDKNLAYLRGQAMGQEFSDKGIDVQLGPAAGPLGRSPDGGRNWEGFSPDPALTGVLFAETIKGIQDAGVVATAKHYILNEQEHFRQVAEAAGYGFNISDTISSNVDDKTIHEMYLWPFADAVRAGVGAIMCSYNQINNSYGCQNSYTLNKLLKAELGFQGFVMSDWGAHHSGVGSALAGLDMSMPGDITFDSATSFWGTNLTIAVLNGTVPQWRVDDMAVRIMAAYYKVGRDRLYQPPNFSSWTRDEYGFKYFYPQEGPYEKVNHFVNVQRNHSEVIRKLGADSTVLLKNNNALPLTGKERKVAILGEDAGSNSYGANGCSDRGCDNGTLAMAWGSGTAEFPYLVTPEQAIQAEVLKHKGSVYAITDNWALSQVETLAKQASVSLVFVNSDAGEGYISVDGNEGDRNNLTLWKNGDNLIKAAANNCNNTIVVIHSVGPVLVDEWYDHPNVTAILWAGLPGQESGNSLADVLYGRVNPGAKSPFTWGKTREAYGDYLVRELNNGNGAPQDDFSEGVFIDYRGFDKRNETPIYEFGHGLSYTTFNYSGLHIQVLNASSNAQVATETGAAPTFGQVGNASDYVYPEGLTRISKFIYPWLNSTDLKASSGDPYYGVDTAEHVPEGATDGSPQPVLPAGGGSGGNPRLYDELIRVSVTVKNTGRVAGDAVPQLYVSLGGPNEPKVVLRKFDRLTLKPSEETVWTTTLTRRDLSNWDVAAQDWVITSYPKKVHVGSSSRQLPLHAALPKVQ

OC[C@H]1O[C@H](N=C2NC3C(O2)C(O)C(O)C3(O)CO)[C@H](O)[C@@H](O)[C@@H]1O (stereo partly shown) [Trehalostatin]
Action (ID50) ([1]; enzyme 24 unit (nmol glucose/min), pH 5.5, 5 mM trehalase, measuring method A): ++ (ID50 ≤ 1.0 μg)
inhibitory effect against trehalase in insects ([1]; trehalase in insects, especially Aldrichina grahami, statement in words): effective inhibitory effect against trehalase in insects, especially in Aldrichina grahami, even at a very low concentration
Action (ID50) [2]: + (ID50 ≥ 1.0 μg)
Action (ID50) [3]: + (ID50 ≥ 1.0 μg)
Action (ID50) (Trehalase (swine kidney)): + (ID50 ≥ 1.0 μg)
Action (ID50) (α-glycosidase (yeast)): + (ID50 ≥ 1.0 μg)
Action (ID50) [4]: + (ID50 ≥ 1.0 μg)
Action (ID50) (Gluco amylase (almond)): -
Action (ID50) [5]: -
Action (ID50) (exo-β-1,3-glucanase): -
